According to US8778948B2, “Substituted phenylpiperazinyl aralkylalcohol derivatives, pharmaceutical compositions containing such derivatives and uses thereof” (priority 2008, dated 2014):
Structures can show the parent of a compound that is named as a salt. Marks after values point to notes of the source that are not given here.

Assays:
[1] = target: opioid receptor subtype δ (Homo sapiens, UniProt P41143); test: Competitive radioligand binding ([3H]Diprenorphine), opioid receptor subtype δ; settings: read-out: Inhibition percentage of competitive binding, δ
Sequence of opioid receptor subtype δ (P41143 whole entry): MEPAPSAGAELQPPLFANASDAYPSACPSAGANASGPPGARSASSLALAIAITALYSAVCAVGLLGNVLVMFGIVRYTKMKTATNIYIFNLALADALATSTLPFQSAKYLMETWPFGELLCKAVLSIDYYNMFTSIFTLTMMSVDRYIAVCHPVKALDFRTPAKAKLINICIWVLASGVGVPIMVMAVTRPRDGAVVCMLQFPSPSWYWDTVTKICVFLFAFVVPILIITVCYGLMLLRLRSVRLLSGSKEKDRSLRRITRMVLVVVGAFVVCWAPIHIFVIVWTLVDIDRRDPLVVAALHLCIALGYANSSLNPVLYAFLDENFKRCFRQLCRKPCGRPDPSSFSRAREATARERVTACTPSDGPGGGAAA
Method: (§1) Competitive Binding Between the Compounds and Opioid Receptor Subtypes μ, δ, κ
(§2) The respective test compounds were added to the sample tube (final concentration of 10^−5M), incubated at 37° C. for 30 min and placed in ice bath to terminate the reaction. The reaction mixture was filtered through GF/C(Whatman) glass fiber filter by vacuum filtration on a Millipore sample collector. The filter was washed three times with 50 mM Tris-HCl (pH7.4), each with 4 ml; dried and transferred into a 0.5 ml Eppendorf tube, in which 0.5 ml lipophilic scintillation fluid was added. Radioactivity was detected by a LS6500 scintillation counter. Each concentration had three duplicate test tubes and each separate test was repeated 3 to 4 times.
(§3) Specific binding CMP value for each sample tube=overall binding CPM value for each sample tube-CPM value of non-specific binding tube. [Inhibition percentage of competitive binding between the test compound and different opioid receptor subtypes (%)=(100%−specific binding (CPM value) of sample tube/specific binding (CPM value) of solvent group×100%)]
Average was taken for each test drug from three duplicate tubes; each test was repeated two or more times. Data were presented as mean±SE and statistical comparison was made by ANOVA.

Kunming mice [2] = test: Acetic acid-induced abdominal writhing test in mice; assay type: in vivo; settings: 1 h before 0.7% acetic acid i.p.
Method: Acetic Acid-Induced Abdominal Writhing Test in Mice
Kunming mice, SPF KM mice purchased from […] SLAC LABORATORY ANIMAL CO. LTD and kept in normal environment.
(§4) 2. Modes of Administration
The compounds were dissolved in water for injection at a concentration of 4 mg/ml, 2 mg/ml and 1 mg/ml and were given intragastrically to animals.
(§5) Three different doses (10, 20, and 40 mg/kg) were administered to the test groups.
Aspirin was used as a positive control and acetic acid writhing test was used.
30 mice (half male and half female) weighing 18-23 g were divided into five groups, including negative control group, positive control group, low dose group, medium dose group and high dose group:
Mice in test group received test drug (10 mg/kg, 20 mg/kg, 40 mg/kg) via intragastric administration. Negative control group received physiological saline (20 ml/kg) via oral administration. Positive control group received aspirin (200 mg/kg) via oral administration. One hour later, each group received 0.7% acetic acid 10 ml/kg intraperitoneally. Five minutes later, the number of writhes was counted within the subsequent 15 min period; inhibition percentage of writhing response in each test group was calculated by the following equation: […]

Kunming mice [3] = test: Hot-plate test in mice; assay type: in vivo; settings: 1 h post dose, hot plate 55° C.
Method: Kunming mice, SPF KM mice were purchased from […] SLAC LABORATORY ANIMAL CO. LTD and kept in normal environment.
as §4
The compounds were dissolved in water for injection at a concentration of 4 mg/ml, 2 mg/ml and 1 mg/ml and were given subcutaneously to animals.
as §5
Morphine was used as a positive control and hot plate test was used.
30-40 mice (half male and half female) weighing 18-23 g were used. First, each mouse was placed on a hot plat at 55° C. to determine basic pain threshold for 2-3 times. Those animals with basic pain threshold of 5-30 s were qualified, unqualified mice were not used. 30 qualified mice were divided into five groups, including negative control group, positive control group, low-dose group, medium-dose group and high-dose group:
Mice in test groups received test sample solution (10 mg/kg, 20 mg/kg, 40 mg/kg) via subcutaneous injection in the neck. Positive control group received subcutaneous injection of morphine (2 mg/kg). One hour later, pain threshold values were determined for mice in each group as post-drug pain threshold. Percentage increase in pain threshold was calculated according to the following equation: […]

in vivo = settings: mouse, po, mice
Text: Studies of Acute Toxicity of the Compound I-1 and I-20
For statistics of 1-20, Bliss method was used (“Experimental Design and Statistical Basis for Drug Evaluation”, Changxiao Liu, Ruiyuan Su, first edition, Military Medical Science Press, 1993, 80-90).

[4] = target: opioid receptor subtype κ (Homo sapiens, UniProt P41145); test: biochemical; assay type: binding; settings: test concentration 10^−5 mol/L; [3H]Diprenorphine 0.4 nM; mean±SE; read-out: Inhibition percentage of competitive binding, κ
Sequence of opioid receptor subtype κ (P41145 whole entry): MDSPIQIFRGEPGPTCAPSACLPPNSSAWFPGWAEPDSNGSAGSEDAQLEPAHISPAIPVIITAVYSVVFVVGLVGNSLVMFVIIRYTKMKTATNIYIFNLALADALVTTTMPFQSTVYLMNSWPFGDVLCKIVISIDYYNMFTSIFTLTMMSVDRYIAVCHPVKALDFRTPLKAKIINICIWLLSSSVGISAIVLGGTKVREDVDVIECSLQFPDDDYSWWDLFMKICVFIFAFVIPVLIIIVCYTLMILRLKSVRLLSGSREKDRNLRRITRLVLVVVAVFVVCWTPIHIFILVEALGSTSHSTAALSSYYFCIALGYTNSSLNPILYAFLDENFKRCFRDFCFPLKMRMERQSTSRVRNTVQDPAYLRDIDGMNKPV
Method: as §1, §2, §3
(§6) Average was taken for each test drug from three duplicate tubes; each test was repeated two or more times.

[5] = target: opioid receptor subtype μ (Homo sapiens, UniProt P35372); test: biochemical; assay type: binding; settings: test concentration 10^−5 mol/L; [3H]Diprenorphine 0.4 nM; mean±SE; read-out: Inhibition percentage of competitive binding, μ
Sequence of opioid receptor subtype μ (P35372 whole entry): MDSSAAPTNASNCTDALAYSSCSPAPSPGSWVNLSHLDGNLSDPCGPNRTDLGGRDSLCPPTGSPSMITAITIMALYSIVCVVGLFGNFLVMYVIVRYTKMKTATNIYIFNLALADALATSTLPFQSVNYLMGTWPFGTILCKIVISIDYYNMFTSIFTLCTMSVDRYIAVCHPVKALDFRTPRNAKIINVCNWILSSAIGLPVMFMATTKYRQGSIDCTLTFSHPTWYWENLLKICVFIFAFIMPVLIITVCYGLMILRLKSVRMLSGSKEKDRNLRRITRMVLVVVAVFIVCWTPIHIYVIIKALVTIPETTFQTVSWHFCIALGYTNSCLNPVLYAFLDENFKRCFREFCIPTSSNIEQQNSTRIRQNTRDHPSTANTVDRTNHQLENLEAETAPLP
Method: as §1, §2, §3, §6

Compound | Inhibition percentage of writhing response (Kunming mice [2]; 10 mg/kg Ig) | Inhibition percentage of writhing response (Kunming mice [2]; 20 mg/kg Ig) | Inhibition percentage of writhing response (Kunming mice [2]; 40 mg/kg Ig) | also measured
COc1ccccc1N1CCN(C(C)C(O)c2ccc3[nH]c(=O)[nH]c3c2)CC1 (racemic) (as salt: hydrochloride) |  |  |  | melting point: 221 to 223 °C
CC(C(O)c1ccc2[nH]c(=O)sc2c1)N1CCN(c2cccc(C(F)(F)F)c2)CC1 (racemic) (as salt: hydrochloride) |  |  |  | melting point: 217 to 219 °C
COc1ccccc1N1CCN([C@@H](C)[C@H](O)c2ccc3c(c2)CC(=O)N3)CC1 (racemic) (as salt: hydrochloride) [IV-1, (1RS,2SR)-5-(1-hydroxy-2-(4-(2-methoxyphenyl)piperazin-1-yl)propyl)indolin-2-one] |  |  |  | melting point: 213 to 215 °C
C[C@@H]([C@H](O)c1ccccc1)N1CCN(c2cccc(C(F)(F)F)c2)CC1 (racemic) [Compound I-1, (1RS,2SR)-1-phenyl-2-(4-(3-trifluoromethylphenyl)piperazinyl)-propan-1-ol] | 64.38 * % | 68.13 * % | 83.13 ** % | inhibition at 10 µM [1]: 0%; Percentage increase in pain threshold (Kunming mice [3]; 10 mg/kg S.c.): 4.53%; Percentage increase in pain threshold (Kunming mice [3]; 20 mg/kg S.c.): 11.7%; Percentage increase in pain threshold (Kunming mice [3]; 40 mg/kg S.c.): 89.62 ** %; LD50 (in vivo): > 2000 mg/kg; inhibition at 10 µM [4]: 2.7 ± 0.9%; inhibition at 10 µM [5]: 22.7 ± 2.2%
C[C@H]([C@H](O)c1ccccc1)N1CCN(c2cccc(C(F)(F)F)c2)CC1 (racemic) [Compound I-2, (1RS,2RS)-1-phenyl-2-(4-(3-trifluoromethylphenyl)piperazinyl)-propan-1-ol] | 40.53% | 63.16 * % | 68.95 * % | 
C[C@@H]([C@H](O)c1ccccc1)N1CCN(c2cccc(Cl)c2)CC1 (racemic) [Compound I-3, (1RS,2SR)-1-phenyl-2-(4-(3-chlorophenyl)piperazinyl)-propan-1-ol] | 49.61% | 76.38 * % | 83.46 ** % | 
C[C@H]([C@H](O)c1ccccc1)N1CCN(c2cccc(Cl)c2)CC1 (racemic) [Compound I-4, (1RS,2RS)-1-phenyl-2-(4-(3-chlorophenyl)piperazinyl)-propan-1-ol] | 35.00% | 49.38 * % | 78.13 ** % | 
COc1ccc(N2CCN([C@@H](C)[C@H](O)c3ccccc3)CC2)cc1 (racemic) [Compound I-7, (1RS,2SR)-1-phenyl-2-(4-(4-methoxyphenyl)piperazinyl)-propan-1-ol] | 61.02% | 75.42 ** % | 70.34 * % | 
COc1ccc([C@@H](O)[C@H](C)N2CCN(c3ccccc3OC)CC2)cc1 (racemic) [Compound I-13, (1RS,2SR)-1-(4-methoxyphenyl)-2-(4-(2-methoxyphenyl)piperazinyl)-propan-1-ol] | 73.33 * % | 84.55 * % | 87.88 ** % | Percentage increase in pain threshold (Kunming mice [3]; 10 mg/kg S.c.): 16.19%; Percentage increase in pain threshold (Kunming mice [3]; 20 mg/kg S.c.): 74.59 * %; Percentage increase in pain threshold (Kunming mice [3]; 40 mg/kg S.c.): 142.41 ** %
COc1ccc([C@@H](O)[C@@H](C)N2CCN(c3ccccc3OC)CC2)cc1 (racemic) [Compound I-14, (1RS,2RS)-1-(4-methoxyphenyl)-2-(4-(2-methoxyphenyl)piperazinyl)-propan-1-ol] | 74.55 * % | 79.39 * % | 76.36% | 
C[C@@H]([C@H](O)c1ccc(NS(C)(=O)=O)cc1)N1CCN(c2cccc(C(F)(F)F)c2)CC1 (racemic) [Compound I-17, (1RS,2SR)-1-(4-methanesulfonamidophenyl)-2-(4-(3-trifluoromethylphenyl)piperazinyl)-propan-1-ol] |  |  |  | Percentage increase in pain threshold (Kunming mice [3]; 10 mg/kg S.c.): 59.02%; Percentage increase in pain threshold (Kunming mice [3]; 20 mg/kg S.c.): 147.36 ** %; Percentage increase in pain threshold (Kunming mice [3]; 40 mg/kg S.c.): 172.27 ** %
COc1ccccc1N1CCN([C@@H](C)[C@H](O)c2ccc3c(c2)CC(=O)N3)CC1 (racemic) [IV-1, (1RS,2SR)-5-(1-hydroxy-2-(4-(2-methoxyphenyl)piperazin-1-yl)propyl)indolin-2-one] | 92.92 ** % | 74.34 * % | 89.38 ** % | inhibition at 10 µM [1]: 0%; inhibition at 10 µM [4]: 5.3 ± 0.1%; inhibition at 10 µM [5]: 7.6 ± 0.8%
COc1ccccc1N1CCN([C@H](C)[C@H](O)c2ccc3c(c2)CC(=O)N3)CC1 (racemic) [IV-2, (1RS,2RS)-5-(1-hydroxy-2-(4-(2-methoxyphenyl)piperazin-1-yl)propyl)indolin-2-one] | 98.23 ** % | 97.35 ** % | 93.81 ** % | 
CC(=O)Oc1ccccc1C(=O)O [Aspirin, reference compound] |  |  |  | Inhibition percentage of writhing response (Kunming mice [2]; positive control aspirin 200 mg/kg oral): 95.05 ** %
COc1ccccc1N1CCN([C@@H](C)[C@H](O)c2ccccc2)CC1 [II-1, (1R,2S)-1-phenyl-2-(4-(2-methoxyphenyl)piperazinyl)-propan-1-ol] | 30.09% | 47.79 * % | 58.41 * % | 
COc1ccccc1N1CCN([C@@H](C)[C@@H](O)c2ccccc2)CC1 [II-2, (1S,2S)-1-phenyl-2-(4-(2-methoxyphenyl)piperazinyl)-propan-1-ol] | 69.91 * % | 71.48 * % | 74.34 ** % | inhibition at 10 µM [1]: 12.8 ± 0.8%; inhibition at 10 µM [4]: 36.5 ± 1.6%; inhibition at 10 µM [5]: 5.3 ± 0.9%
COc1ccccc1N1CCN([C@H](C)[C@@H](O)c2ccccc2)CC1 [III-1, (1S,2R)-1-phenyl-2-(4-(2-methoxyphenyl)piperazinyl)-propan-1-ol] | 69.28 ** % | 55.56 * % | 67.32 ** % | 
COc1ccccc1N1CCN([C@H](C)[C@H](O)c2ccccc2)CC1 [III-2, (1R,2R)-1-phenyl-2-(4-(2-methoxyphenyl)piperazinyl)-propan-1-ol] | 64.05 ** % | 76.47 ** % | 86.27 ** % | inhibition at 10 µM [1]: 16.8 ± 2.3%; Percentage increase in pain threshold (Kunming mice [3]; 10 mg/kg S.c.): 72.91%; Percentage increase in pain threshold (Kunming mice [3]; 20 mg/kg S.c.): 133.48 * %; Percentage increase in pain threshold (Kunming mice [3]; 40 mg/kg S.c.): 151.86 * %; inhibition at 10 µM [4]: 40 ± 0.6%; inhibition at 10 µM [5]: 25.1 ± 1.3%
CN1CC[C@]23c4c5ccc(O)c4O[C@H]2[C@@H](O)C=C[C@H]3[C@H]1C5 [morphine, reference compound] |  |  |  | Percentage increase in pain threshold (Kunming mice [3]; positive control morphine 2 mg/kg S.c.): 202.5 ** %
